Results published in patent US9469643B2, “Polymorphic forms of (S)-2-(1-(9H-purin-6-ylamino)propyl)-5-fluoro-3-phenylquinazolin-4(3H)-one” (GILEAD CALISTOGA LLC, priority 2012, dated 2016).
Values after ≈ are worked out from the molar mass of the structure shown. Where two headings read alike, the source gives them in different places. Blank lines part the entries; values can stand above or below the molecule they belong to.

Experiments:
Format in all cases: physicochemical
[1] = Hydrate screen in ethanol/water system: solid form
Method: (§1) About 50 mg of Form I of (S)-2-(1-(9H-purin-6-ylamino)propyl)-5-fluoro-3-phenylquinazolin-4(3H)-one was slurried in either (A) a 1-mL mixture of a isopropyl alcohol (IPA) and water, or (B) a 1-mL mixture of ethanol and water, for several days at room temperature. As used herein, water activity (aw) in liquid phase corresponds to relative humidity in the atmosphere. For example, 0.5 aw is equivalent to 50% relative humidity.
Form VII of (S)-2-(1-(9H-purin-6-ylamino)propyl)-5-fluoro-3-phenylquinazolin-4(3H)-one was a mixed water/ethanol solvate.

[2] = Conversion of ball milled Form I into Form II in acetone slurry (XRPD); conditions: 10 g ball milled at 30 Hz for 10 minutes, stirred in 300 mL acetone at 28° C.
Method: Form I was prepared as described in Example 1. Form I solids were ball milled in batches for 10 minutes at 30 Hz. Samples were analyzed by XRPD. Table 1 below summarizes the amount of polymorphic Form II observed from conversion of polymorphic Form I. Additionally, 10 g of Form I was ball milled at 30 Hz for 10 minutes and stirred in 300 mL of acetone at 28° C.

[3] = Form I suspensions in acetone at different temperatures: form conversion; conditions: magnetic stirring
Method: Form I of (S)-2-(1-(9H-purin-6-ylamino)propyl)-5-fluoro-3-phenylquinazolin-4(3H)-one was suspended in acetone at a concentration of 50 mg/mL, and stirred magnetically over a period of 5-6 days. Four experiments at different temperature were conducted.
Table 4 summarizes the reaction conditions and the amount of polymorphic forms observed for each of the four experiments. As used in this Example, “Enriched II” described a sample that contains substantially more Form II than Form I.

[4] = Hydrate screen in IPA/water system: solubility of slurried Form I; conditions: isopropyl alcohol/water mixture, organic solvent or mixture, thermodynamic from solid; for solubility: read-out: 15-16 Day Solubility
Method: as §1

[5] = Compression of Form I in hydraulic tablet press, XRPD
Method: Form I of (S)-2-(1-(9H-purin-6-ylamino)propyl)-5-fluoro-3-phenylquinazolin-4(3H)-one was subjected to high pressure in a hydraulic tablet press (ENERPAC Model P142 hydraulic press; #9166 0.275 inch punch) as shown in Table 3 below. The relaxation time is the time between compressions. A sample of the compressed solids was analyzed by XRPD and DSC. FIGS. 2A and 2B depict the XRPD and DSC patterns of polymorphic Form II.

[6] = Dry and wet grinding experiments: conversion of Form I into Form II in slurry
Method: Form I of (S)-2-(1-(9H-purin-6-ylamino)propyl)-5-fluoro-3-phenylquinazolin-4(3H)-one was pre-processed using various grinding methods before forming a slurry in either acetone or THF and stirring at either room temperature, 22° C. or 30° C. As used in this Example, “enriched” describes a sample that contains substantially more Form II than Form I.

[7] = Hydrate screen in IPA/water system: solid form by XRPD
Method: XRPD patterns were collected using a PANalytical X'Pert MPD Pro Powder X-Ray Diffractometer configured with reflectance stage with spinning, data acquisition range: 2-40 degrees 2θ, Copper (Cu) anode; Kα1/Kα2 radiation; tube current 40 mA; tube tension 45 kV; automatic divergence and anti-scatter slits. Samples were prepared for analysis by distributing solid material as a thin layer on a silicon holder. Each holder was mounted on a reflectance/transmittance stage and rotated during data acquisition.
as §1

[8] = Effect of temperature on form conversion of solids (DSC, heating, XRPD)
Method: DSC indicated close melting points for each polymorph and a solid-solid transition in Form II at about 115° C. to produce Form I. To confirm this finding, […] of Form I of (S)-2-(1-(9H-purin-6-ylamino)propyl)-5-fluoro-3-phenylquinazolin-4(3H)-one was heated at 50° C., 60° C., 70° C., 80° C., 90° C., 100° C., 110° C. and 120° C. jacket temperature using Destiny for 22 hours.

[9] = IPA/water aw 0.2, room temperature, solid by XRPD Form I & II
[10] = IPA/water aw 0.3, room temperature, solid by XRPD Form I & II
[11] = IPA/water aw 0.4, room temperature, solid by XRPD Form I & II
[12] = IPA/water aw 0.5, room temperature, solid by XRPD Form I & II
[13] = IPA/water aw 0.6, room temperature, solid by XRPD Form I & II
[14] = Form I slurried in IPA/water aw 0.2, room temperature
[15] = Form I slurried in IPA/water aw 0.3, room temperature
[16] = Form I slurried in IPA/water aw 0.4, room temperature
[17] = Form I slurried in IPA/water aw 0.5, room temperature
[18] = Form I slurried in IPA/water aw 0.6, room temperature
[19] = Form I slurried in IPA/water aw 0.7, room temperature
[20] = Form I slurried in IPA/water aw 0.8, room temperature
[21] = Form I slurried in IPA/water aw 0.9, room temperature

- Form (solid form after slurry) ([1]; Form I slurried in ethanol/water aw 0.9, several days, room temperature): I & VII
- Form conversion in ethanol/water system ([1]; water activity 0.5 and 0.6, room temperature (data not shown in Table 6)): no conversion
- Form conversion in ethanol/water system ([1]; water activity from 0.2 to 0.4, room temperature (data not shown in Table 6)): slowly converted to Form II
- conversion of Form I into Form II ([2]; after 18 hours): about 50%
- conversion of Form I into Form II ([2]; after 40 hours): about 90%
- Form observed after suspension in acetone ([3]; 50 mg/mL, 30 ° C., suspension time 5 days): Enriched II
- Form observed after suspension in acetone ([3]; 51 mg/mL, 27 ° C., suspension time 5 days): Enriched II
- Form observed after suspension in acetone ([3]; 52 mg/mL, 33 ° C., suspension time 6 days): Form I
- Form observed after suspension in acetone ([3]; 52 mg/mL, 37 ° C., suspension time 6 days): Form I
- solubility at 48 h [4, 9]: 24 mg/mL (≈ 57.8 mM)
- solubility [4, 9]: 20 mg/mL (≈ 48.1 mM)
- solubility at 48 h [4, 10]: 19 mg/mL (≈ 45.7 mM)
- solubility [4, 10]: 19 mg/mL (≈ 45.7 mM)
- solubility at 48 h [4, 11]: 18 mg/mL (≈ 43.3 mM)
- solubility [4, 11]: 20 mg/mL (≈ 48.1 mM)
- solubility at 48 h [4, 12]: 23 mg/mL (≈ 55.4 mM)
- solubility [4, 12]: 20 mg/mL (≈ 48.1 mM)
- solubility at 48 h [4, 13]: 23 mg/mL (≈ 55.4 mM)
- solubility [4, 13]: 24 mg/mL (≈ 57.8 mM)
- solubility at 48 h ([4]; IPA/water aw 0.7, room temperature, solid by XRPD Form III): 9.8 mg/mL (≈ 23.6 mM)
- solubility at 48 h ([4]; IPA/water aw 0.8, room temperature, solid by XRPD Form III): 11 mg/mL (≈ 26.5 mM)
- XRPD (forms observed) ([5]; 163 mg, 2000 psi, 5 min, relaxation time 72 hours): I & II (~1:1)
- XRPD (forms observed) ([5]; 164 mg, 3000 psi, 5 min, relaxation time 2 hours): I & II (~1:1)
- XRPD (forms observed) ([5]; 167 mg, 2000 psi, 10 min, relaxation time 72 hours): I & II (~1:1)
- XRPD (forms observed) ([5]; 168 mg, 3000 psi, 10 min, relaxation time 2 hours): I & II (~1:1)
- XRPD (forms observed) ([5]; 171 mg, 3000 psi, 60 min, relaxation time 72 hours): I & II (excess
- XRPD (forms observed) ([5]; amount NA, atm pressure, no compression): Form I &
- conversion of Form I to Form II ([5]; compressed at 3000 psi for 60 minutes (FIG. 5C)): over 50%
- XRPD (forms observed) ([5]; ~150 mg, 1000 psi, <0.5 min, relaxation time 24 hours): Form I and II
- XRPD (forms observed) ([5]; ~150 mg, atm pressure, no compression): Form I and II
- XRPD (forms observed) ([5]; ~160 mg, 4500 psi, <0.5 min): Form I and II
- Form II content ([6]; 0.2 g, dry/wet grinding, acetone slurry, r.t., magnetic stirring, after 1 day): Enriched after 1 day
- Form II content ([6]; 0.2 g, dry/wet grinding, acetone slurry, r.t., magnetic stirring, after 2 days): Highly enriched after 2 days
- Form II content ([6]; 1 g, dry/wet grinding, acetone slurry, r.t., magnetic stirring, after 1 week): Trace amount after 1 week
- Form II content ([6]; 1 g, high shear mixer (dry), THF slurry, r.t., magnetic stirring, after 1 day): Trace amount after 1 day
- Form II content ([6]; 1 g, high shear mixer (dry), acetone slurry, r.t., magnetic stirring, after 1 day): Trace amount after 1 day
- Form II content ([6]; 1 g, jet milled, acetone slurry, 22 ° C., magnetic stirring, after 1 day): Small amount after 1 day
- Form II content ([6]; 1 g, jet milled, acetone slurry, 22 ° C., magnetic stirring, after 4 days): Enriched after 4 days
- Form II content ([6]; 5 g, high shear wet mill, acetone slurry, 30 ° C., overhead stirring, after 3 days): Undetectable after 3 days
- Form II content ([6]; 20 g, dry grinding, acetone slurry, 30 ° C., overhead stirring, after 3 days): Undetectable after 3 days
- 15-16 Day XRPD (solid form) [7, 14]: Form I & II
- 48 Hour XRPD (solid form) [7, 14]: Form I & II
- 15-16 Day XRPD (solid form) [7, 15]: Form I & II
- 48 Hour XRPD (solid form) [7, 15]: Form I & II
- 15-16 Day XRPD (solid form) [7, 16]: Form I & II
- 48 Hour XRPD (solid form) [7, 16]: Form I & II
- 15-16 Day XRPD (solid form) [7, 17]: Form I & II
- 48 Hour XRPD (solid form) [7, 17]: Form I & II
- 15-16 Day XRPD (solid form) [7, 18]: Form I & II
- 48 Hour XRPD (solid form) [7, 18]: Form I & II
- 15-16 Day XRPD (solid form) [7, 19]: Form III
- 48 Hour XRPD (solid form) [7, 19]: Form III
- 15-16 Day XRPD (solid form) [7, 20]: Form III
- 48 Hour XRPD (solid form) [7, 20]: Form III
- 15-16 Day XRPD (solid form) [7, 21]: Form III
- 48 Hour XRPD (solid form) [7, 21]: Form III
- temperature at which form conversion of heated solids was observed ([8]; solids heated at 50-120° C. jacket temperature for 22 hours, XRPD (FIG. 6)): around 90 °C
SMILES: CC[C@H](Nc1ncnc2[nH]cnc12)c1nc2cccc(F)c2c(=O)n1-c1ccccc1 [Form I, (S)-2-(1-(9H-purin-6-ylamino)propyl)-5-fluoro-3-phenylquinazolin-4(3H)-one]

- solid-solid transition temperature (to produce Form I) ([8]; by DSC): about 115 °C
SMILES: CC[C@H](Nc1ncnc2[nH]cnc12)c1nc2cccc(F)c2c(=O)n1-c1ccccc1 [Form II, (S)-2-(1-(9H-purin-6-ylamino)propyl)-5-fluoro-3-phenylquinazolin-4(3H)-one]
